Test results taken from patent US20120034210A1, “COMPOSITIONS FOR POTENTIATING APOPOSIS SIGNALS IN TUMOUR CELLS” (INSTITUT BERGONIE, priority 2008, published 2012).
Entries after “also recorded” stand apart in the source; their conditions may differ.

What was measured:
[1] = system: DISC macro-complex (Fas/FADD/Caspase-8); test: DISC formation: Fas immunoprecipitation and Western blot; type: cell-based, human; conditions: H9, Jurkat, activated PBTs; non-cytotoxic concentrations; vs untreated cells
Description: Cells were incubated with 1 μg/ml APO1-3 for 30 minutes at 4° C. After washing, cells were incubated for 15 minutes at 4° C. (0 minutes) or at 37° C. (15 minutes) and then lysed for 30 minutes at 4° C. in a lysis buffer (25 mM HEPES pH 7.4, 1% Triton X-100, 150 mM NaCl, 2 mM EDTA, a cocktail including protease inhibitors (Sigma)). The lysed cells were then centrifugated for 15 minutes at 15000 rpm in order to eliminate genomic DNA, and the supernatant was kept. The sepharose beads which were coupled with protein A were added to the lysate and the mixture was incubated for 2 hours. The beads were recovered, washed intensively and the immunoprecipitated proteins were re-suspended in a denaturing and reducing buffer (0.01M Tris-HCl pH6.8, 10% glycerol (v/v), 85 mM sodium dodecyl sulfate (SDS), 5% (v/v) […] and 0.005% (w/v) bromophenol blue) then heated at 100° C. for 5 minutes. The samples were deposited in an acrylamide/Bisacrylamide gel and separated by electrophoresis. The proteins were transferred from the gel into a nitrocellulose membrane using a semi-dry medium transfer technique for 2 hours at constant amperage (0.8 mA/cm^2). […] After transfer, the nitrocellulose membrane was saturated with proteins for 30 minutes with a TBST buffer (50 mM Tris pH=8, 0.15M sodium chloride, 0.05% (v/v) Tween-20) containing 5% (w/v) skimmed powdered milk (TBSTM). After washing with TBST, the membrane was incubated for 2 hours with the primary antibody in TBST. The membrane was washed intensively then incubated for one hour with TBST containing the secondary peroxidase-coupled antibody. […] This solution contained a substrate metabolised by peroxidase to yield a luminescent compound, which allowed marking a radiographic film (Amersham).

[2] = system: intracellular calcium concentration; test: Intracellular Ca2+ concentration, indo-1 (micro)spectrofluorimetry; type: cell-based, human
Description: Principle: [Ca^2+]i was measured by microspectrofluorimetry using a calcium sensitive fluorescent probe: indo-1. When excited at 360 nm wavelength, the so-called monoexcitation/double emission indo-1 probe transmitted back in a spectrum ranging from 400 to 500 nm. Binding of Ca^2+ to indo-1 caused displacement of the emission spectrum after excitation. The emission maximum in the unbound form was located around 480 nm. The emission of the complexed form was around 405 nm. An increase of calcium concentration thus caused the emission to increase to 405 nm and the emission to decrease to 480 nm. The ratio of both fluorescence intensities allowed to be independent from the quantity of the probe and to determine the [Ca^2+]i according to the Grynkiewicz equation:
[Ca^2+]i(nM)=Kd.β×(R−Rmin)/(Rmax−R)
Rmax, Rmin and Kd. β were determined by combining electrophysiology (patch clamp) and spectrofluorimetry. Rmax was determined by placing in the patch pipette a medium containing 10 mM CaCl2. Rmin was obtained by placing as an intrapipette solution a calcium-deprived medium (10 mM EGTA).
The cells were then rinsed with HBSS (800 rpm centrifugation for 2 minutes) and placed in an observation chamber on a glass coverslip. […] The excitation light is supplied by a Xenon lamp (100W). […] The substances to be tested were applied using a glass pipette positioned at some twenty μm of the studied cell and connected to a pneumatic system.
The principle as well as the loading of the cells were identical with the measurement on single cells. In such a case, approx. 40,000 cells were placed in a quartz tub under constant agitation. The tub was then placed in a Hitachi spectrofluorimeter whereof the excitation monochromator was set to 350 nm. […] The signals were transmitted to a computer via an analogue/digital converter. So as to be able to apply the Grynkiewicz equation (see above) and translate the fluorescence ratios measured in calcium values, the calibration parameters were entered into the software. The substances to be tested were applied directly in the tube under constant agitation.

caspase-8 = test: Caspase-8 activation/cleavage; type: cell-based, human
[3] = system: T and B leukemia/lymphoma cell lines and activated PBLs treated with FasL; test: Fas/CD95-mediated cell death (MTT test); type: cell-based, human
Description: 2 to 4.10^4 cells were deposited in wells in a 96-well plate. The cells were incubated, in the presence of the different reactants for the times specified, at 37° C. in a final volume of 100 or 200 μl.
The MTT test enabled to measure the activity of a mitochondrial enzyme, the dehydrogenase succinate which transforms MTT (or 3-(4,5-dimethylthiazol-2-yl)-2,5-diphenyltetrazolium) bromide originally yellow in colour and soluble, into blue formazan crystals, insoluble in aqueous phase. Upon completion of the different treatments, the living cells were quantified by adding in each well 15 μl PBS (Phosphate Buffered Saline) containing 5 mg/ml MTT. […] Spectrophotometric reading of absorbance was done at 570 nm. The measurement of the optical density is directly proportional to the number of living cells and the percentage of cell death was calculated with the following formula: 100-[(DO treated cells/DO non-treated cells)*100].

CD95 [4] = test: CD95 capping (CD95-CAP), fluorescence confocal microscopy; type: cell-based, human; conditions: leukemic cell lines; culture up to 24 hours
Description: The cells were left to adhere on a slide pre-treated with poly-L-lysin (ESCO, VWR) for 5 minutes then incubated with the different reactants. The cells activated with the anti-Fas APO1-3 agonist antibody were washed and marked directly with the anti-mouse secondary antibody coupled with Alexa555 fluorochrome. The cells incubated with Rituximab (anti-CD20) were washed in a cold PBS buffer then fixed with a PBS/4% PFA (paraformaldehyde) solution for 15 min. […] The cells were washed in PBS medium then the slide was dried and the cells were placed in a mounting medium, Fluoroprep (Biomerieux) and analysed by fluorescence confocal microscopy (LSM SP5, Leica, Germany) with an x63 zoom. The DAPI (200 ng/ml) allowed colouring the nuclei.

CD95 [5] = test: CD95 expression; type: cell-based, human; conditions: 2-APB or BAPTA-AM regimens
Description: This technique allowed detecting the presence of a protein on the cell surface. All the steps took place at 4° C. so as to reduce membrane proteins endocytosis and loss of cell labelling.
Plasma membrane of the cells (10^6 cells per marking) was saturated for 5 minutes in 1 ml PBS containing 1% (w/v) BSA (bovine serum albumin) and 1% (v/v) foetal veal serum (FVS). This solution was used for washings and antibody dilutions.
The cells were incubated for 30 minutes with 50 μl primary antibody (anti-Fas DX2 clone at 10 μg/ml), washed twice with the PBS/BSA/FCS solution, then incubated with 50 μl of a secondary antibody coupled with phycoerythrin for 30 minutes. After 3 washings, the cells were re-suspended in 200 μl PBS/BSA/SVF and analysed immediately by flow cytometry (FACsCalibur, BD Biosciences). The fluorescence intensity was analysed with the Cellquest software.

[6] = system: Raji, BL2, Jurkat cell lines and activated PBL; test: Apoptosis % by loss of mitochondrial membrane potential; type: cell-based, human; conditions: Zoledronate 10 μM in vitro; BL2, Raji and Jurkat, respectively
Description: 2 to 4.10^4 cells were deposited in wells in a 96-well plate. The cells were incubated, in the presence of the different reactants for the times specified, at 37° C. in a final volume of 100 or 200 μl. The apoptotic cells were identified in the cellular populations by measuring mitochondrial de-polarisation. […] These potentiometric probes allowed monitoring the variations of the mitochondrial membrane potential. […] Following cell treatment with the different drugs, the former were placed in the presence of TMRM or DIOC6 at 10 nM concentration, for 20 minutes at 37° C. then the fluorescence of the cells was analysed by flow cytometry.

[7] = Mice calcemia after Zoledronate injection; type: in vivo; conditions: 4 mg/kg, one injection per week, 4 weeks, blood 3 days after last injection
Description: Blood samples were taken from mice 3 days after the last Zoledronate or vehicle injection and calcemia was assessed by COBAS INTEGRA Calcium® (Roche) micro-method.

Raji cells = test: Raji B lymphoma tumour growth in Rag2-/-γ-/- mice; type: in vivo; conditions: Raji s.c.; single agent; Rituximab 2 mg/kg, Zoledronate 4 mg/kg
Description: The implantation of the tumours was done subcutaneously in Rag2−/−γ−/− mice flank aged from 5 to 7 weeks. Following implantation of the tumours, the mice were divided in groups of 8 to 10 animals for each treatment. The size of the tumour was assessed every day by measuring its width (w) and its length (I). Its volume was calculated according to the formula: V=lw^2/2. At the end of the experiment, the animals were sacrified, the tumour weight was measured.
From 10^6 Raji cells were implanted subcutaneously in mice flank. The effects of Rituximab alone, of Zoledronate alone, are assessed on the growth of tumours. Rituximab (2 mg/kg) was delivered 3 times a week, Zoledronate was delivered 1 time a week.

Compound | DISC formation / FADD recruitment upon CD95 stimulation [1] | increase in intracellular calcium induced by Thapsigargin and by extracellular calcium 0 to 5 mM ([2]; 2-APB 44 μM) | concentration of intracellular calcium ([2]; high doses of 2-APB, T or B lymphoma cell lines) | CD95-mediated peak of calcium ([2]; non-cytotoxic concentrations, CD95 stimulation) | basal [Ca2+]i ([2]; pre-incubation of cells) | kinetic of caspase-8 cleavage upon CD95L (caspase-8; T and B-cell lines) | caspase-8 activation or mitochondrial depolarization by the agent alone (caspase-8; during 60 minutes treatment, no CD95L) | CD95-mediated apoptotic signal in CD95-resistant cells ([3]; Jurkat-CD95Q257K, pre-incubation with non-cytotoxic doses) | potentiation of FasL response ([3]; high doses of 2-APB (44 μM), T or B lymphoma/leukemic cell lines) | apoptotic signal by the agent alone ([3]; leukemic cell lines, long-term culture up to 24 hours, no CD95L) | CD95-CAP formation (CD95 [4]) | expression of CD95 (CD95 [5]) | potentiation of apoptotic response to TRAIL, RTX and FasL [6] | calcemia vs vehicle [7] | intracellular calcium concentration ([2]; Zoledronate in vitro, all model cell lines tested) | tumour mass vs vehicle (Raji cells)
NCCOB(c1ccccc1)c1ccccc1 [2-APB, 2-Aminoethoxydiphenyl borate] | dramatically improved the DISC formation; also recorded: induction of DISC formation | reduced the increase in the intracellular calcium concentration | induced decreasing concentration of intracellular calcium | totally abrogated the CD95-mediated peak of calcium | induced a faint decrease in the basal [Ca^2+]i | accelerated the cleavage of the initiator caspase-8 | no trace of caspase-8 activation or mitochondrial depolarization was detected | restored the CD95-mediated apoptotic signal at a level comparable to the parental cell line | potentiated FasL response; also recorded: sensitizes drastically the Fas apoptotic signal | did not trigger the apoptotic signal | drives CD95-CAP | did not modify the expression of CD95 | – | – | – | –
O=P(O)(O)C(O)(Cn1ccnc1)P(=O)(O)O [Zoledronate, zoledronate] | – | – | – | – | – | – | – | – | – | – | – | – | does not potentiate the apoptotic response | significant (p<0.05) decrease in their calcemia | did not affect intracellular calcium concentration | not significantly affected
